# Experimental data published in US20210346411A1 (priority 2020, published 2021).
# Entries after “also recorded” stand apart in the source; their conditions may differ.
# What was measured:
# [1] = system: SARS-CoV-2 (2019-nCoV) virus (nCoV-2019BetaCoV/Wuhan/WIV04/2019 strain); test: Reduction of viral nucleic acid load of Vero E6 cells infected by SARS-CoV-2 (qRT-PCR of supernatant); assay type: cell-based; set-up: Virus genome copy number: unit not given here; conditions: for Virus genome copy number: 48 h, Vero E6, 100TCID50, supernatant
# Vero E6 cells = test: Cytotoxicity test of drug (CCK-8 kit); assay type: cell-based; conditions: all test concentrations (0.14-100 μM), 48 hours
# EBOV = conditions: intravenous 10 mg/kg per day for consecutive 12 days, treatment started three days after virus exposure; cited from earlier work
compound,measurement,setting,value
"CCC(CC)COC(=O)[C@H](C)N[P@](=O)(OC[C@H]1O[C@@](C#N)(c2ccc3c(N)ncnn23)[C@H](O)[C@@H]1O)Oc1ccccc1 [Remdesivir, 2-ethylbutyl (2S)-2-[[[(2R,3S,4R,5R)-5-(4-aminopyrrolo[2,1-f][1,2,4]triazin-7-yl)-5-cyano-3,4-dihydroxyoxolan-2-yl]methoxy-phenoxyphosphoryl]amino]propanoate]",Virus genome copy number,[1]; 0.14 μM,6120820311.5
same,Virus genome copy number,[1]; 0.41 μM,1751863138.5
same,Virus genome copy number,[1]; 1.23 μM,879273650.5
same,Virus genome copy number,[1]; 3.70 μM,20287512.5
same,Virus genome copy number,[1]; 11.11 μM,16308516.5
same,Virus genome copy number,[1]; 33.33 μM,12429732
same,Virus genome copy number,[1]; 100 μM,9010444.5
same,inhibition of the replication of the SARS-CoV-2 virus genome in the infected supernatant,"[1]; concentrations of 100 μM, 33 μM, 11.1 μM and 3.7 μM",could effectively inhibit
same,reduction of the viral nucleic acid load,"[1]; drug concentration of 33 μM, 48 hours after infection, Vero E6",an order of magnitude
same,viral nucleic acid load in cells infected by SARS-CoV-2,[1]; micromolar concentration level,can reduce the viral nucleic acid load
same,cytotoxicity (toxic effect on the cells),Vero E6 cells,no cytotoxicity was observed; also recorded: no toxic effect
same,EBOV-infected animals protected from death,EBOV,100%
same,replication of EBOV,EBOV,significantly inhibit
